Data from patent US7189761B2, “Nitric oxide donor composition and method for treatment of anal disorders” (priority 1994, dated 2007).
Like-named read-outs stand apart in the source and are kept apart here. Ends that are not written are not given here.

What was measured:
[1] = test system: smooth muscle strips of the internal anal sphincter (IAS); details: cited from earlier work
[2] = test system: human internal anal sphincter muscle strips; details: cited from earlier work; for effect on relaxations produced by transmural field stimulation: in the presence of atropine and guanethidine
[3] = test system: internal anal sphincter (IAS); details: cited from earlier work; for reversal of the L-NNA suppression of rectoanal reflex-induced IAS relaxation: in vivo; for effect on the decrease in IAS resting pressures in response to the rectoanal reflex: reflex mimicked by rectal balloon distention
[4] = test system: anal fissure; assay: Case reports: topical ointment in patients with anal fissure; format: in vivo, human; details: person, superficial posterior midline anal fissure, patient history
Description: The patient rated their pre-treatment pain 7/10. The patient applied approximately 500 mg of the ointment as prepared in Example 1, three times daily and after bowel movements. The patient reported that their pain was gone following initial application.
The patient rated their pre-treatment pain 7/10. The patient applied approximately 500 mg of the ointment as prepared in Example 1, three times daily and after bowel movements. […] After three weeks of treatment, the fissure was healed, and the pain was gone.
They had previously failed a course of hydrocortisone therapy. Pre-treatment pain was rated 9/10. The patient was treated with approximately 500 mg of the preparation of Example 1, three times daily and after bowel movements. After one week of treatment, the fissure was still present, and pain was rated 8/10. The patient was then treated with approximately 500 mg of the preparation of Example 2, three times daily and after bowel movements. Following one week of therapy with the ointment as of Example 2, the patient reported no pain and no bleeding.
Pre-treatment pain was rated 4/10. The patient was treated with the ointment as of Example 2, approximately 500 mg three times daily and after bowel movements. Following one week of therapy, the patient reported that their pain had diminished, and it was rated 2/10. […]

[5] = isolated IAS smooth muscle strips
[6] = response to lower frequencies of EFS and DMPP

NC1=N[C@H](O)[C@H]2[C@H]3O[C@]4(O)O[C@@H]([C@@H](O)[C@@]2(N1)[C@@H]4O)[C@]3(O)CO [tetrodotoxin]
effect of pretreatment on NO release and fall in IAS resting tension [1]: abolished

N=C(N)NCCC[C@@H](N)C(=O)O [D-arginine]
reversal of the inhibitory effects of NO synthase antagonists [2]: did not reverse | reversal of the loss of NO release and IAS relaxation [1]: no significant effect | reversal of the L-NNA suppression of rectoanal reflex-induced IAS relaxation [3]: failed to reverse

N=C(N)NCCC[C@H](N)C(=O)O [L-arginine]
reversal of the inhibitory effects of NO synthase antagonists [2]: reversed | reversal of the loss of NO release and IAS relaxation [1]: reversed to control levels | reversal of the L-NNA suppression of rectoanal reflex-induced IAS relaxation [3]: completely reversed

C[C@]12CCC(=O)C=C1CC[C@@H]1[C@@H]2[C@@H](O)C[C@@]2(C)[C@H]1CC[C@]2(O)C(=O)CO [hydrocortisone, 11-17-21-trihydroxypregn-4-ene-3,20-dione]
outcome of previous course of therapy [4]: failed

vasoactive intestinal polypeptide: vasoactive intestinal polypeptide (HSDAVFTDNYTRLRKQMAVKKYLNSILN; ends and bridges not checked; UniProt P01282 125-152, looked up)
IAS relaxation and release of NO [1, 5]: release of NO

NC(=NCCC[C@@H](N)C(=O)O)N[N+](=O)[O-] [D-NNA]
effect of pretreatment on NO release and fall in IAS resting tension [1, 6]: no significant effect | effect on the decrease in IAS resting pressures in response to the rectoanal reflex [3]: no effect

oxyhaemoglobin
effect on relaxations produced by transmural field stimulation [2]: abolished

atrial natriuretic factor
IAS relaxation and release of NO [1, 5]: caused IAS relaxation without any increase in NO release

C[N+]1(C)CCN(c2ccccc2)CC1 [DMPP, 1,1-dimethyl-4-phenylpiperazinium]
IAS relaxation and release of NO [1]: caused IAS relaxation with an accompanying release of NO

CC(C)NCC(O)c1ccc(O)c(O)c1 (centres unmarked) [isoproterenol]
IAS relaxation and release of NO [1, 5]: caused IAS relaxation without any increase in NO release | effect on the resting pressure of the IAS ([3]; not modified by L-NNA): decrease

N=C(NCCC[C@H](N)C(=O)O)N[N+](=O)[O-] [L-NNA, L-NG-nitro-arginine]
effect on relaxations produced by transmural field stimulation [2]: completely | effect on NO release caused by vasoactive intestinal polypeptide ([1]; IAS smooth muscle strips): abolished | effect of pretreatment on NO release and fall in IAS resting tension [1, 6]: abolished | effect on the decrease in IAS resting pressures in response to the rectoanal reflex [3]: significant dose-dependent suppression
